Series [1] can be described thus: Turbidimetric solubility assay. The class given is physicochemical. As to conditions: HEPES buffer with MgCl2 and CaCl2, aqueous buffer, kinetic from dmso stock; HEPES buffer 10 mM pH 7.4, MgCl2 2 mM, CaCl2 1 mM, 1.0% (v/v) DMSO; turbidity at 400 nm; read-out: Estimated Solubility. The protocol: The final DMSO concentration in each sample was 1.0% (v/v). Increased turbidity (light scattering) was measured at 400 nm, since all compounds have absorbance peaks below this wavelength. Each sample was prepared and measured in triplicate. All measurements were done using a Hitachi U-2010 spectrophotometer.

Series [2] is described as follows: Turbidity at 400 nm as a function of time. The class given is physicochemical. As to conditions: A 500 µM, B 100 µM, D 250 µM; HEPES buffer pH 7.4, 1.0% (v/v) DMSO; precipitates seen after 60 min. How it is done:
Additionally, turbidity at 400 nm as a function of time was followed for compounds A–D (Figure 6a). The concentration of each compound in these assays was near to the maximum that could be obtained, so that DMSO concentration was kept at 1.0% (v/v) in the assay buffer. […] In fact, after 60 min, precipitates at the bottom of the cuvettes were clearly observed by visual inspection (data not shown).
Figure 6 (a) Turbidity at 400 nm as a function of time measured for compounds A, B, C and D (at 500 µM, 100 µM, 80 µM and 250 µM, respectively). Each solution was prepared in HEPES buffer (10 mM), containing MgCl2 (2 mM) and CaCl2 (1 mM), pH = 7.4. Final concentration of DMSO in each sample was 1.0% (v/v); (b) Mean diameter (D) values as a function of time for compound C (80 µM) as determined by DLS. A solution of C was prepared in HEPES buffer (10 mM), containing MgCl2 (2 mM) and CaCl2 (1 mM), pH = 7.4. Final concentration of DMSO in each sample was 1.0% (v/v).
Turbidimetric assays were done using a Hitachi U-2010 spectrophotometer (Hitachi, Chiyoda, Tokyo, Japan). DLS analysis was done using a Zeta Plus Zeta-Potential Analyzer (Brookshaven Instruments Corporation, Hotsville, NY, USA) equipped with a 570 nm laser for dynamic light scattering at 90°. For enzymatic assays, absorbance measurements were done using a FlexStation 3 Multi-Mode Microplate Reader (Molecular Devices, LLC, San Jose, CA, USA).

In series [3] the target is T1, human ecto-5′-NT (Homo sapiens, UniProt P21589).
T1 construct: purchased OriGene Technologies, Inc (Rockville, MD, USA)
T1 sequence (P21589 27-574): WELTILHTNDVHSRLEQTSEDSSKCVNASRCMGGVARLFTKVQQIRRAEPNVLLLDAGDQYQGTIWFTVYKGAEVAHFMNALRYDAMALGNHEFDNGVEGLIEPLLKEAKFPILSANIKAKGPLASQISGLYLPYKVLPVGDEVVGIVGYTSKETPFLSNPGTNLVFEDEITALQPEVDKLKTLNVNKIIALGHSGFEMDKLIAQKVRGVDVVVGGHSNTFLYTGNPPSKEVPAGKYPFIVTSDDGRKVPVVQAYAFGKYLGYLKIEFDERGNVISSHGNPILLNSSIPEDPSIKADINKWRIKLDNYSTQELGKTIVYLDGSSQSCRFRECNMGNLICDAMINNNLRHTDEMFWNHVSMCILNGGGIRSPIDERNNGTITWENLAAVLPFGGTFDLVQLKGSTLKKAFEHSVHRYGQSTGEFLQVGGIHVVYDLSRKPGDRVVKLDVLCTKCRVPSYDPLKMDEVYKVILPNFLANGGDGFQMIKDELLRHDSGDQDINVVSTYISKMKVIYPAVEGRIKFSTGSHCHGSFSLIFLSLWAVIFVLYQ
Kind of series: Enzyme inhibition assay (without Triton X-100), malachite green method. Type of series: biochemical. The conditions noted are these: human ecto-5′-NT 3.6 nM; for Hill slope: concentration-inhibition curve, without Triton X-100; for IC50: AMP 500 µM, without Triton X-100, HEPES pH 7.4. The protocol: (§1) Enzyme inhibition assays (without Triton X-100). Following procedures described in the literature, with some modifications, all assays were carried out in a reaction mixture containing HEPES buffer (10 mM; pH = 7.4), MgCl2 (2 mM), CaCl2 (1 mM), human ecto-5′-NT (3.6 nM), AMP (500 µM) as substrate and variable concentration of each tested compound (from 0 to 500 µM for A and from 0 to 100 µM for B, C and D). Stock solutions of each compound were prepared in DMSO. The final concentration of DMSO in all samples/assays/experiments was 1.0% (v/v). Results were controlled for the effect of DMSO on enzymatic activity. After incubation for 10 min at 37.0 ± 0.2 °C, the reactions were stopped by heating the system for 5 min at 99.0 ± 0.2 °C. Inorganic phosphate concentrations were quantified spectrophotometrically (at λ = 630 nm), using the malachite green method, as described in the literature. Each experiment was done in triplicate. A four-parameter logistic non-linear regression model was used to fit the experimental data, using GraphPad Prism 7.0 (GraphPad, San Diego, CA, USA). From the corresponding fitted curves, we obtained the IC50 values, except when the minimum plateau value from the dose-response curve was far from zero. For such curves, IC50 ranges were estimated based on the inhibition (%) achieved at the maximum tested concentration.

The target of series [4] is T1, human ecto-5′-NT. Briefly: Non-ionic detergent-sensitivity evaluation: enzyme inhibition assay with 0.01% (v/v) Triton X-100. Type of series: biochemical. As to conditions: human ecto-5′-NT 3.6 nM, AMP 500 µM, read-out: IC50 in the presence of 0.01% (v/v) Triton X-100. How it is done: as §1
(i) Non-ionic detergent-sensitivity evaluation: For each compound (A, B, C and D), enzyme inhibition assays were done, similarly as described above, using however Triton X-100 (a non-ionic detergent) at a final concentration of 0.01% (v/v) in the reaction mixture.

The target of series [5] is T1, human ecto-5′-NT. Kind of series: Enzyme concentration sensitivity evaluation: enzyme inhibition assay at 36 nM enzyme. The class given is biochemical. As to conditions: human ecto-5′-NT 36 nM (10-fold increase), AMP 500 µM. The protocol:
as §1
(ii) Enzyme concentration sensitivity evaluation: For each compound (A, B, C and D), enzyme inhibition assays were done, similarly as described above, but using human ecto-5′-NT at 36 nM (increased by 10-fold).

Series [6] can be described thus: Dynamic light scattering (DLS), aggregation kinetics. The class given is physicochemical. The conditions noted are these: 80 µM, HEPES buffer pH 7.4, 1.0% (v/v) DMSO. The protocol: (iv) Dynamic light scattering (DLS): Particle size (mean zeta-average diameter D) for compound C was determined using a Zeta Plus Zeta-Potential Analyzer (Brookshaven Instruments Corporation, Hotsville, NY, USA) equipped with a 570 nm laser for dynamic light scattering at 90° [63]. Solutions of Compound C (80 µM) were prepared in HEPES buffer (10 mM), pH = 7.4. The final concentration of DMSO in each sample was 1.0% (v/v).

Each structure is given as a SMILES string. ≈ marks a conversion by molar mass, not a printed value.

Regarding `O=C(COC(=O)c1n[nH]c2ccccc12)Nc1c(F)cccc1F` [Compound A, [(2,6-difluorophenyl)carbamoyl]methyl 1H-indazole-3-carboxylate], the solubility in series [1] is 79.1 µM (≈ 26.2 µg/mL). Moreover, the “Turbidity at 400 nm as a function of time” value (“Turbidity at 400 nm” for short) in series [2] is on record as “a decrease in turbidity is observed as a function of time”. The same molecule displayed a Hill slope at human ecto-5′-NT [3] of −2.75. The IC50 was 82.9 ± 1.1 µM on human ecto-5′-NT [3] and greater than 500 µM at human ecto-5′-NT [4].

Take `O=C(Nc1nc2ccc(F)cc2s1)c1cc(-c2ccccc2O)n[nH]1` [B, N-(6-fluoro-1,3-benzothiazol-2-yl)-3-(2-hydroxyphenyl)-1H-pyrazole-5-carboxamide]: in series [1], the solubility is 8.8 µM (≈ 3.12 µg/mL). For the same molecule, in series [2], the “Turbidity at 400 nm” value is “a decrease in turbidity is observed as a function of time”. Also, the IC50 is greater than 36 µM against human ecto-5′-NT [5], 1.9 ± 1 µM against human ecto-5′-NT [3] and 2.3 ± 1.2 µM on human ecto-5′-NT [4]. The Hill slope at human ecto-5′-NT [3] is given as −2.90.

As to `CS(=O)(=O)c1ccc2nc(NC(=O)c3cc(-c4ccccc4O)[nH]n3)sc2c1` [Compound D, 5-(2-hydroxyphenyl)-N-(6-methanesulfonyl-1,3-benzothiazol-2-yl)-1H-pyrazole-3-carboxamide], the solubility in series [1] is less than 0.5 µM. In addition, in series [2], the “Turbidity at 400 nm” value is given as “a decrease in turbidity is observed as a function of time”. Moreover, the IC50 at human ecto-5′-NT [5] was greater than 36 µM; against human ecto-5′-NT [3], 2.2 ± 1.2 µM; on human ecto-5′-NT [4], greater than 36 µM.

`Nc1ncnc2c1ncn2[C@@H]1O[C@H](COP(=O)(O)OP(=O)(O)O)[C@@H](O)[C@H]1O` [ADP, adenosine diphosphate, reference compound]: the figures for the IC50 against human ecto-5′-NT [5], at human ecto-5′-NT [3] and at human ecto-5′-NT [4] were 27.2 ± 1.1 µM, 29.7 ± 1.2 µM and 31.7 ± 1.2 µM, respectively.

As for `CSc1nnc(NC(=O)c2cc(-c3cc(C)cc(C)c3O)n[nH]2)s1` [Compound C, 3-(2-hydroxy-3,5-dimethylphenyl)-N-[5-(methylsulfanyl)-1,3,4-thiadiazol-2-yl]-1H-pyrazole-5-carboxamide], the solubility in series [1] is 11.7 µM (≈ 4.23 µg/mL). Besides, the Hill slope at human ecto-5′-NT [3] is given as −3.19. Further, the IC50 at human ecto-5′-NT [3] is 16.3 ± 1.1 µM; on human ecto-5′-NT [4], greater than 100 µM. Also, the “Aggregate particle size (mean diameter) as a function of time by DLS” value in series [6] is recorded as “aggregate particle size slowly increased with time”.

A word on the solubility: it is the dissolved amount per volume that the medium holds. The Hill slope is the slope factor of the fitted curve.
